Reference: patent publication US20260285857A1, “BICYCLIC AND HETEROCYCLIC AMIDE COMPOUNDS” (priority 2024, published 2026)

Tested on: immunoglobulin light chain protein WIL-FL T46L
Test: Differential scanning fluorimetry (thermal shift) assay
Assay type: binding
Conditions: Table A; temperature shift [Tm]compound-[Tm]vehicle; recombinant WIL-FL T46L

Structure (SMILES) | DSF
Cc1cc(N2CC[C@](C)(c3ccc(Cl)c(Cl)c3)C2)cn2nc(C(=O)N3CC[C@@]4(CCN(c5cccc(C(=O)O)n5)C4)C3)nc12 [Compound 37, 6-[(5R)-2-[6-[(3R)-3-(3,4-dichlorophenyl)-3-methyl-pyrrolidin-1-yl]-8-methyl-[1,2,4]triazolo[1,5-a]pyridine-2-carbonyl]-2,7-diazaspiro[4.4]nonan-7-yl]pyridine-2-carboxylic acid] | ***** (>2.5° C.=*****)
Cc1cnc(C2(C)CCN(c3cc(C)c4nc(C(=O)N5CC6CN(c7cccc(C(=O)O)n7)CC6C5)nn4c3)C2)nc1 (stereo not drawn) [Compound 400] | ** (>0.5-1 °C =**)
Cc1cc(N2CC[C@](C)(c3ccccc3)C2)cn2nc(C(=O)NC3CC4CCC(C3)N4)nc12 (stereo partly drawn) [Compound 199] | ***** (>2.5° C.=*****)
CCC1(c2ccccc2)CN(c2cc(C)c3nc(C(=O)NC4CCN(c5ccnc(C(=O)O)c5)CC4)nn3c2)C1 [Compound 395] | ***** (>2.5° C.=*****)
Cc1cc(N2CC[C@](C)(c3ccccc3)C2)cn2nc(C(=O)N[C@@H]3CN[C@H](C(C)(C)O)C3)nc12 [Compound 162] | ***** (>2.5° C.=*****)
C[C@]1(c2ccccc2)CCN(c2cc(CO)c3nc(C45CC(N)(CO4)C5)nn3c2)C1 [Compound 59] | ***** (>2.5° C.=*****)
Cc1cc(N2CC[C@](C)(c3ccccc3)C2)cn2nc(C34CC(CO3)C4Cn3cn[nH]c3=O)nc12 (stereo partly drawn) [Compound 88] | ***** (>2.5° C.=*****)
Cc1cc(N2CC[C@](C)(c3ccccc3)C2)cn2nc(C(=O)NC3CC4(C3)CC(N3C[C@@H](O)[C@@H](O)C3)C4)nc12 (stereo partly drawn) [Compound 369] | ***** (>2.5° C.=*****)
Cc1cc(N2CC[C@](C)(c3ccccc3)C2)cn2nc(C(=O)NC3(C)CCN(c4ccnc(C(=O)O)c4)CC3)nc12 [Compound 282] | ***** (>2.5° C.=*****)
Cc1cc(N2CC[C@](C)(c3ccccc3)C2)cn2nc(C34CCC(N)(CO3)C4)nc12 (stereo partly drawn) [Compound 66] | ***** (>2.5° C.=*****)
Cc1cc(N2CC[C@](C)(c3ccccc3)C2)cn2nc(C(=O)NC34COC(C(N)=O)(C3)C4)nc12 [Compound 212] | ***** (>2.5° C.=*****)
Cc1cc(N2CC[C@](C)(c3ccccc3)C2)cn2nc(C(=O)NC(C)(C)CO)nc12 [Compound 153] | ***** (>2.5° C.=*****)
Cc1cc(N2CC[C@](C)(c3ccccc3)C2)cn2nc(C(=O)N3CC4CN(c5cccc(C(=O)O)n5)CC4C3)nc12 (stereo partly drawn) [Compound 213] | ***** (>2.5° C.=*****)
Cc1cc(OC[C@H](C)c2cccc(F)c2)cn2nc(C(=O)NC3CC4(C3)CC(N3CC5C(C3)C5C(=O)O)C4)nc12 (stereo partly drawn) [Compound 310] | ***** (>2.5° C.=*****)
Cc1cc(N2CCC(C)(c3ccccc3O)C2)cn2nc(C(=O)N3CC[C@@]4(CCN(c5cccc(C(=O)O)n5)C4)C3)nc12 (stereo partly drawn) [Compound 410] | *** (>1-1.5° C.=***)
Cc1nn(CC2C3COC2(c2nc4c(C)cc(N5CC[C@](C)(c6ccccc6)C5)cn4n2)C3)c(=O)[nH]1 (stereo partly drawn) [Compound 87] | ***** (>2.5° C.=*****)
COC(CO)CNC(=O)c1nc2c(C)cc(N3CC[C@](C)(c4ccccc4)C3)cn2n1 (stereo partly drawn) [Compound 148] | ***** (>2.5° C.=*****)
Cc1cc(N2CC[C@](C)(c3ccccc3)C2)cn2nc(C(N)=O)nc12 [Compound 137] | ***** (>2.5° C.=*****)
Cc1cc(N2CC[C@](C)(c3ccccc3)C2)cn2nc(C(=O)NC3(C(=O)O)CC3)nc12 [Compound 163] | ***** (>2.5° C.=*****)
Cc1cc(N2CC[C@](C)(c3ccccc3)C2)cn2nc(C(=O)NC34CCC(CO)(C3)C4)nc12 [Compound 204] | ***** (>2.5° C.=*****)
Cc1cc(N2CC[C@](C)(c3ccccc3)C2)cn2nc(C(=O)N3CCC4(CCN(c5ccnc(C(=O)O)n5)C4)C3)nc12 (stereo partly drawn) [Compound 266] | ***** (>2.5° C.=*****)
Cc1cc(N2CC[C@](C)(c3ccccc3)C2)cn2nc(C(=O)N3CCOCC3)nc12 [Compound 196] | ***** (>2.5° C.=*****)
Cc1ncn(CC23CC(C(N)=O)(C2)C(c2nc4c(C)cc(N5CC[C@](C)(c6ccccc6)C5)cn4n2)O3)n1 (stereo partly drawn) [Compound 95] | ***** (>2.5° C.=*****)
Cc1cc(N2CC[C@](C)(c3ccccc3)C2)cn2nc(C(=O)NC34COC(C3)C4)nc12 [Compound 183] | ***** (>2.5° C.=*****)
Cc1cc(N2CCC(C)(C#N)C2)cn2nc(C(=O)N3CC4CN(c5cccc(C(=O)O)n5)CC4C3)nc12 (stereo not drawn) [Compound 430] | * (0-0.5° C.=*)
Cc1cc(N2CC3(CC(NC(=O)c4nc5c(C)cc(N6CC[C@](C)(c7ccccc7)C6)cn5n4)C3)C2)cc(C(=O)O)n1 [Compound 272] | ***** (>2.5° C.=*****)
Cc1cc(N2CC[C@](c3ccccc3)(C(F)F)C2)cn2nc(C(=O)NC3CCN(c4ccnc(C(=O)O)c4)CC3)nc12 [Compound 330] | **** (>1.5-2.5° C.=****)

Same assay, conditions: Table B; temperature shift [Tm]compound-[Tm]vehicle; recombinant WIL-FL T46L

Structure (SMILES) | DSF
Cc1cc(N2CC[C@](C)(c3ccccc3)C2)cn2nc(C(=O)N3CC[C@@]4(CCN(C(=O)CC(C)(C)C(=O)O)C4)C3)nc12 [Compound 707, 2,2-dimethyl-4-[(5R)-2-[8-methyl-6-[(3R)-3-methyl-3-phenyl-pyrrolidin-1-yl]-[1,2,4]triazolo[1,5-a]pyridine-2-carbonyl]-2,7-diazaspiro[4.4]nonan-7-yl]-4-oxo-butanoic acid] | ***** (>2.5° C.=*****)
Cc1cc(N2CC[C@](C)(c3ccccc3)C2)cn2nc(C(=O)N3CC[C@@]4(CCN(C(=O)CC(C)(O)C(=O)O)C4)C3)nc12 (stereo partly drawn) [Compound 731, 2-hydroxy-2-methyl-4-[(5R)-2-[8-methyl-6-[(3R)-3-methyl-3-phenyl-pyrrolidin-1-yl]-[1,2,4]triazolo[1,5-a]pyridine-2-carbonyl]-2,7-diazaspiro[4.4]nonan-7-yl]-4-oxo-butanoic acid] | ***** (>2.5° C.=*****)
Cc1cc(N2CC[C@](C)(c3ccccc3)C2)cn2nc(C(=O)N3CC[C@@]4(CCN(c5ccc(F)c(C(=O)O)n5)C4)C3)nc12 [Compound 711] | ***** (>2.5° C.=*****)
Cc1cc(N2CC[C@](C)(c3ccccc3)C2)cn2nc(C(=O)NC3CN(c4cccc(C(=O)O)n4)C4(COC4)C3)nc12 (stereo partly drawn) [Compound 664, 6-[7-[[8-methyl-6-[(3R)-3-methyl-3-phenyl-pyrrolidin-1-yl]-[1,2,4]triazolo[1,5-a]pyridine-2-carbonyl]amino]-2-oxa-5-azaspiro[3.4]octan-5-yl]pyridine-2-carboxylic acid] | ***** (>2.5° C.=*****)
Cc1cc(N2CC[C@](C)(c3ccccc3)C2)cn2nc(C34CC(Cn5nncc5C)(CO3)C4)nc12 [Compound 451] | ***** (>2.5° C.=*****)
Cc1cc(N2CC[C@](C)(c3ccccc3)C2)cn2nc(C(=O)N3C[C@H](O)[C@@]4(CCN(c5cccc(C(=O)O)n5)C4)C3)nc12 [Compound 703, Mis6-[4-hydroxy-2-[8-methyl-6-[(3R)-3-methyl-3-phenyl-pyrrolidin-1-yl]-[1,2,4]triazolo[1,5-a]pyridine-2-carbonyl]-2,7-diazaspiro[4.4]nonan-7-yl]pyridine-2-carboxylic acid] | ***** (>2.5° C.=*****)
Cc1cc(N2CC[C@](C)(c3ccccc3)C2)cn2nc(C(=O)N3CCC4(CCN(c5cc(C(=O)O)cnn5)C4)C3)nc12 (stereo partly drawn) [Compound 626] | ***** (>2.5° C.=*****)
Cc1cc(N2CC[C@](C)(c3ccccc3)C2)cn2nc(C34CC(CO3)C4C(=O)Nc3cccc(C(=O)O)n3)nc12 (stereo partly drawn) [Compound 478] | ***** (>2.5° C.=*****)
Cc1cc(N2CC[C@](C)(c3ccccc3)C2)cn2nc(C(=O)NC3CN(c4cccc(C(=O)O)n4)CC3O)nc12 (stereo partly drawn) [Compound 684] | ***** (>2.5° C.=*****)
Cc1cc(N2CC3(CCC3c3cccc(F)c3)C2)cn2nc(C(=O)N3CC[C@@]4(CCN(c5cccc(C(=O)O)n5)C4)C3)nc12 (stereo partly drawn) [Compound 737] | ***** (>2.5° C.=*****)
Cc1cc(N2CC[C@](C)(n3ccc(C(F)(F)F)n3)C2)cn2nc(C(=O)N3CC[C@@]4(CCN(c5cccc(C(=O)O)n5)C4)C3)nc12 [Compound 742] | ***** (>2.5° C.=*****)
Cc1cc(N2CC[C@](C)(c3ccccc3)C2)cn2nc(C3OC4(C)CC3(C(=O)O)C4)nc12 (stereo partly drawn) [Compound 474, 1-methyl-3-[8-methyl-6-[(3R)-3-methyl-3-phenyl-pyrrolidin-1-yl]-[1,2,4]triazolo[1,5-a]pyridin-2-yl]-2-oxabicyclo[2.1.1]hexane-4-carboxylic acid] | **** (>1.5-2.5° C.=****)
